Reference: patent US11292788B2, “IL-17 and IFN-gamma inhibition for the treatment of autoimmune diseases and chronic inflammation” (Immunic AG, priority 2017, dated 2022)
≈ marks a conversion by molar mass, not a printed value. Where two headings read alike, the source gives them in different places.

Columns and labels:
INF-γ = assay: Cytokine assay: INF-γ production by human PBMC stimulated with PHA; type: cell-based; settings: Homo sapiens, PBMC, IC50 class, read-out: IFN-gamma Inhib.
Summary of the method: (§1)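 Human donor PBMC (1×10^5 cells/well) were activated with 2 μg/ml PHA and exposed to compounds for 48 h. Supernatant IL-17A, IL-17F and IFN-γ were measured by Luminex or ELISA. Screening used 10, 1, 0.1 and 0.01 μM; IC50 values came from semilogarithmic titrations.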

IL-17F = assay: Cytokine assay: IL-17F production by human PBMC stimulated with PHA; type: cell-based; settings: Homo sapiens, PBMC, IC50 class, read-out: IL-17F Inhib.
Summary of the method: as §1

[1] = Microsomal stability: incubation with human liver microsomes, residual parent compound by HPLC-MS/MS; type: in vitro ADME; settings: up to 60 min, read-out: t1/2 hLM
Summary of the method: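 Compound at 1 μM final with 0.5 mg/ml pooled human liver microsomes and NADPH regenerating system, 0.1 M potassium phosphate pH 7.4, 0.4% DMSO, 37° C, sampled up to 60 min. Residual parent measured by HPLC-MS/MS; half-life and clearance from slope of remaining % of T0.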

IL-17A = assay: Cytokine assay: IL-17A production by human PBMC stimulated with PHA; type: cell-based; settings: IC50 class, read-out: IL-17A Inhib.
Summary of the method: as §1

[2] = Aqueous solubility in 50 mM phosphate buffer (HPLC/DAD); type: physicochemical; settings: 50 mM phosphate buffer, 23 °C, pH 7.4, aqueous buffer, kinetic from dmso stock, aqueous solubility class; read-out: aq. solub.
Method: To achieve this, the samples (final volume 500 μl, 200 μM compound concentration) were incubated for 24 hours at 23° C. under continuous shaking at 1400 rpm (Thermomixer, Eppendorf) in aqueous phosphate buffers (pH 4.0, 6.0, 7.4 and 9.0) with a final DMSO concentration of 1%. To separate the undissolved compound from the solution, the samples were centrifuged (30 min 18000 g at 23° C.). Supernatants were measured via HPLC equipped with a UV detector and concentrations were calculated according to signals of a standard curve. The standard curve was prepared by diluting a stock solution of each compound (c=0.1 mg/ml; received by adding 10 μl of 20 mM compound in DMSO to 914 μl MeCN) in a certain amount of MeCN to cover a range of 0.1 to 200 μg/ml.

[3] = pH 7.4, human liver microsomes, 1 μM compound, 0.5 mg/ml HLM, 37° C.

Row | Structure (SMILES) | IC50 (INF-γ) [nM] | IC50 (IL-17F) [nM] | IC50 (IL-17A; Homo sapiens, PBMC) [nM] | solubility at 24 h [2] [µM] | half-life at 1 μM [1, 3] [min] | IC50 (IL-17A) [nM] | half-life at 1 μM ([1]; human liver microsomes 0.5 mg/ml, compound 1 μM, pH 7.4, 37° C.) [min]
1 | C[C@@H](O)Cn1ncc(-c2onc(-c3c(F)cccc3Cl)c2COC2CCC2)c1C(F)(F)F [Example 90, (2R)-1-(4-(3-(2-chloro-6-fluorophenyl)-4-(cyclobutoxymethyl)isoxazol-5-yl)-5-(trifluoromethyl)-1H-pyrazol-1-yl)propan-2-ol] | < 50 | < 50 | < 50 | > 10 | – | – | 2 to 9.99
2 | C[C@]1(O)C[C@@H](n2ncc(-c3onc(-c4ccccc4Cl)c3-c3cnccn3)c2C(F)(F)F)C1 [Example 101, 3-{4-[3-(2-chlorophenyl)-4-(pyrazin-2-yl)-1,2-oxazol-5-yl]-5-(trifluoromethyl)-1H-pyrazol-1-yl}-1-methylcyclobutan-1-ol] | ≥ 5000 | ≥ 5000 | 500 to 5000 | 1 to 2.99 (≈ 0.476 to 1.42 µg/mL) | > 100 | – | –
3 | Cc1c(-c2onc(-c3c(F)cccc3Cl)c2-c2cnccn2)cnn1[C@H]1C[C@@](C)(O)C1 [Example 110, 3-{4-[3-(2-chloro-6-fluorophenyl)-4-(pyrazin-2-yl)-1,2-oxazol-5-yl]-5-methyl-1H-pyrazol-1-yl}-1-methylcyclobutan-1-ol] | 50 to 500 | 50 to 500 | 50 to 500 | > 10 | > 100 | – | –
4 | CC(C)(O)CCn1ncc(-c2onc(-c3c(F)cccc3Cl)c2-c2ncccn2)c1C(F)(F)F [Example 123, 4-{4-[3-(2-chloro-6-fluorophenyl)-4-(pyrimidin-2-yl)-1,2-oxazol-5-yl]-5-(trifluoromethyl)-1H-pyrazol-1-yl}-2-methylbutan-2-ol] | < 50 | < 50 | < 50 | > 10 | > 100 | – | –
5 | Cc1c(-c2onc(-c3ccccc3Cl)c2-c2ncccn2)cnn1CCC(C)(C)O [Example 126, 4-[4-[3-(2-chlorophenyl)-4-(pyrimidin-2-yl)-1,2-oxazol-5-yl]-5-methyl-1H-pyrazol-1-yl]-2-methylbutan-2-ol] | 50 to 500 | 50 to 500 | 50 to 500 | > 10 | > 100 | – | –
6 | CC(C)(O)CCn1ncc(-c2onc(-c3cccc(OCc4ccccc4)c3Cl)c2-c2ncccn2)c1C(F)(F)F [Example 128, 4-(4-{3-[3-(benzyloxy)-2-chlorophenyl]-4-(pyrimidin-2-yl)-1,2-oxazol-5-yl}-5-(trifluoromethyl)-1H-pyrazol-1-yl)-2-methylbutan-2-ol] | ≥ 5000 | < 50 | < 50 | < 1 | 2 to 9.99 | – | –
7 | COc1cccc(-c2noc(-c3cnn([C@H]4C[C@@](C)(O)C4)c3C(F)(F)F)c2COC2CC2)c1Cl [Example 130, 3-(4-(3-(2-chloro-3-methoxyphenyl)-4-(cyclopropoxymethyl)isoxazol-5-yl)-5-(trifluoromethyl)-1H-pyrazol-1-yl)-1-methylcyclobutan-1-ol] | < 50 | < 50 | < 50 | 3 to 9.99 (≈ 1.49 to 4.97 µg/mL) | 40 to 100 | – | –
8 | CCOC(=O)c1c(-c2cccc(OC)c2Cl)noc1-c1cnn([C@H]2C[C@@](C)(O)C2)c1C(F)(F)F [Example 131, ethyl 3-(2-chloro-3-methoxyphenyl)-5-{1-[3-hydroxy-3-methylcyclobutyl]-5-(trifluoromethyl)-1H-pyrazol-4-yl}-1,2-oxazole-4-carboxylate] | < 50 | < 50 | < 50 | > 10 | > 100 | – | –
9 | CCOC(=O)c1c(-c2cccc(OC)c2Cl)noc1-c1cnn(CCC(C)(C)O)c1C(F)(F)F [Example 132, ethyl 3-(2-chloro-3-methoxyphenyl)-5-[1-(3-hydroxy-3-methylbutyl)-5-(trifluoromethyl)-1H-pyrazol-4-yl]-1,2-oxazole-4-carboxylate] | < 50 | < 50 | < 50 | 3 to 9.99 (≈ 1.51 to 5.01 µg/mL) | 40 to 100 | – | –
10 | CCN(CC)CCCOc1cccc(-c2noc(-c3cnn(CCC(C)(C)O)c3C)c2-c2ncccn2)c1Cl [Example 147, 4-[4-(3-{2-chloro-3-[3-(diethylamino)propoxy]phenyl}-4-(pyrimidin-2-yl)-1,2-oxazol-5-yl)-5-methyl-1H-pyrazol-1-yl]-2-methylbutan-2-ol] | 50 to 500 | 500 to 5000 | 500 to 5000 | > 10 | > 100 | – | –
11 | C[C@@H](O)Cn1ncc(-c2onc(-c3cccc(C(=O)N4CCCC4)c3Cl)c2-c2ccncn2)c1C(F)(F)F [Example 160, (R)-(2-chloro-3-(5-(1-(2-hydroxypropyl)-5-(trifluoromethyl)-1H-pyrazol-4-yl)-4-(pyrimidin-4-yl)isoxazol-3-yl)phenyl)(pyrrolidin-1-yl)methanone] | < 50 | < 50 | < 50 | > 10 | 10 to 40 | – | –

Further lines, with some results ahead:

Row | IC50 (INF-γ) [nM] | IC50 (IL-17F) [nM] | IC50 (IL-17A; Homo sapiens, PBMC) [nM] | solubility at 24 h [2] [µM] | half-life at 1 μM [1, 3] [min] | IC50 (IL-17A) [nM] | Structure (SMILES) | half-life at 1 μM ([1]; human liver microsomes 0.5 mg/ml, compound 1 μM, pH 7.4, 37° C.) [min]
12 | < 50 | < 50 | 50 to 500 | > 10 | > 100 | – | Cc1c(-c2onc(-c3ccccc3Cl)c2-c2ncccn2)cnn1[C@H]1C[C@@](C)(O)C1 [Example 99, 3-(4-(3-(2-chlorophenyl)-4-(pyrimidin-2-yl)isoxazol-5-yl)-5-methyl-1H-pyrazol-1-yl)-1-methylcyclobutan-1-ol] | –
13 | < 50 | < 50 | < 50 | > 10 | > 100 | – | C[C@]1(O)C[C@@H](n2ncc(-c3onc(-c4ccccc4Cl)c3-c3ncccn3)c2C(F)(F)F)C1 [Example 102, 3-{4-[3-(2-chlorophenyl)-4-(pyrimidin-2-yl)-1,2-oxazol-5-yl]-5-(trifluoromethyl)-1H-pyrazol-1-yl}-1-methylcyclobutan-1-ol] | –
14 | < 50 | < 50 | – | 1 to 2.99 (≈ 0.494 to 1.48 µg/mL) | > 100 | < 50 | C[C@]1(O)C[C@@H](n2ncc(-c3onc(-c4c(F)cccc4Cl)c3-c3ccncn3)c2C(F)(F)F)C1 [Example 104, 3-{4-[3-(2-chloro-6-fluorophenyl)-4-(pyrimidin-4-yl)-1,2-oxazol-5-yl]-5-(trifluoromethyl)-1H-pyrazol-1-yl}-1-methylcyclobutan-1-ol] | –
15 | < 50 | < 50 | < 50 | > 10 | > 100 | – | C[C@]1(O)C[C@@H](n2ncc(-c3onc(-c4ccccc4Cl)c3-c3ccncn3)c2C(F)(F)F)C1 [Example 106, 3-{4-[3-(2-chlorophenyl)-4-(pyrimidin-4-yl)-1,2-oxazol-5-yl]-5-(trifluoromethyl)-1H-pyrazol-1-yl}-1-methylcyclobutan-1-ol] | –
16 | < 50 | < 50 | < 50 | > 10 | > 100 | – | Cc1c(-c2onc(-c3c(F)cccc3Cl)c2-c2ncccn2)cnn1[C@H]1C[C@@](C)(O)C1 [Example 111, 3-{4-[3-(2-chloro-6-fluorophenyl)-4-(pyrimidin-2-yl)-1,2-oxazol-5-yl]-5-methyl-1H-pyrazol-1-yl}-1-methylcyclobutan-1-ol] | –
17 | < 50 | < 50 | < 50 | > 10 | > 100 | – | COc1cccc(-c2noc(-c3cnn([C@H]4C[C@@](C)(O)C4)c3C)c2-c2ncccn2)c1Cl [Example 112, 3-{4-[3-(2-chloro-3-methoxyphenyl)-4-(pyrimidin-2-yl)-1,2-oxazol-5-yl]-5-methyl-1H-pyrazol-1-yl}-1-methylcyclobutan-1-ol] | –
